Test results from the Deep4Chem optical property database.
Values belong to the compound of their own block, whether it stands above or below them.

Assay: solvent given as SMILES

- absorption maximum (in C1CCOC1): 392 nm
Compound: F[Si-](F)(c1c2ccccc2cc2ccccc12)(c1c2ccccc2cc2ccccc12)c1c2ccccc2cc2ccccc12

- absorption maximum (in CO): 534 nm
Compound: CCOC(=O)CCCCCn1c2ccc(Cl)cc2c(=O)c2cc3c(cc21)c(=O)c1cc(Cl)ccc1n3CCCCCC(=O)OCC

- absorption maximum (in ClCCl): 592 nm
Compound: C1=CC2C=c3c(cc4cccc5cc6ccccc6c3c45)C3=c4ccccc4=CC(=C1)C32 (centres undefined)

- absorption maximum (in C1CCOC1): 366 nm
- absorption maximum (in CC#N): 366 nm
- absorption maximum (in CCO): 366 nm
- absorption maximum (in CCOC(C)=O): 366 nm
- absorption maximum (in CN(C)C=O): 358 nm
- absorption maximum (in ClCCl): 370 nm
- absorption maximum (in c1ccccc1): 370 nm
Compound: COc1ccc([C@@H]2C[C@](O)(c3ccccn3)C[C@](O)(c3ccccn3)[C@H]2C(=O)c2ccc(N(c3ccccc3)c3ccccc3)cc2)cc1

- absorption maximum (in CN(C)C=O): 605 nm
- absorption maximum (in ClC(Cl)Cl): 605 nm
Compound: O=C1C2=C3c4sccc4C=CN3C(=O)C2=C2c3sccc3C=CN12

- absorption maximum (in ClCCl): 414 nm
Compound: COc1ccc2c(c1)c1cc(OC)ccc1c1c2c2c(C(=O)NC(C)(C)C)ccc(C(=O)NC(C)(C)C)c2c2c3ccc(OC)cc3c3cc(OC)ccc3c21

- absorption maximum (in ClCCl): 422 nm
Compound: C(=C\c1ccncn1)/c1ccc(N(c2ccccc2)c2ccc(/C=C/c3ccncn3)cc2)cc1

Compound: O=[N+]([O-])c1ccc(-c2nc3c(c4c2-c2ccccc2CC4)-c2ccccc2CC3)cc1
- absorption maximum (in C1CCOC1): 350 nm
- absorption maximum (in CC#N): 345 nm
- absorption maximum (in CCCCCC): 339 nm
- absorption maximum (in CCOC(C)=O): 339 nm
- absorption maximum (in CO): 334 nm
- absorption maximum (in CS(C)=O): 352 nm
- absorption maximum (in Cc1ccccc1): 351 nm
- absorption maximum (in ClCCl): 353 nm

Compound: CCCCCCCCC1(CCCCCCCC)c2ccccc2-c2ccc(-c3nnc(-c4ccc(-n5c6ccc(C(C)(C)C)cc6c6cc(C(C)(C)C)ccc65)cc4)o3)cc21
- absorption maximum (in Cc1ccccc1): 352 nm

- absorption maximum (in ClCCl): 556 nm
Compound: COc1ccccc1C1=[N+]2C(=C(c3ccccc3)c3c4c(c(-c5ccccc5OC)n3[B-]2(F)F)C2C=CC4CC2)C2=C1C1C=CC2CC1 (centres undefined)

Compound: CCCCCCCCCC1(CCCCCCCCC)c2cc(C#Cc3ccc(/C=C/c4ccc(N(CCCCCCCC)CCCCCCCC)cc4)cc3)ccc2-c2ccc(C#Cc3ccc(/C=C/c4ccc(N(CCCCCCCC)CCCCCCCC)cc4)cc3)cc21
- absorption maximum (in Cc1ccccc1): 411 nm

- absorption maximum (in C1CCOC1): 342 nm
- absorption maximum (in CCCCCC): 338 nm
- absorption maximum (in CCO): 342 nm
- absorption maximum (in CS(C)=O): 345 nm
Compound: COc1ccc2cc(-c3ccc(C)cc3)c(=O)oc2c1

- absorption maximum (in C1CCOC1): 346 nm
Compound: N#Cc1c(N2CCCCC2)cc(-c2ccc3ccccc3c2)c2c1C(=O)c1ccccc1-2

Compound: COC(=O)/C(C#N)=c1\s/c(=c2/s/c(=C(/C#N)C(=O)OC)c3cc(-c4ccc5c(c4)C(C)(C)c4ccccc4-5)sc23)c2sc(-c3ccc4c(c3)C(C)(C)c3ccccc3-4)cc12
- absorption maximum (in Cc1ccccc1): 630 nm

- absorption maximum (in CC#N): 224 nm
- absorption maximum (in CCCCCC): 222 nm
Compound: COc1ccc(-n2c(C)ccc2C)cc1

- absorption maximum (in ClCCl): 310 nm
Compound: CCOC(=O)C1=C(C(=O)OC)N2CCc3cc(OC)c(OC)cc3C2=C[C@H](c2ccc(Cl)cc2)C12c1ccccc1-c1ccccc12

- absorption maximum (in ClCCl): 482 nm
Compound: Nc1ccc2c(ccc3[n+]2[B-](F)(F)n2c-3cc3c4ccccc4c4ccccc4c32)c1

- absorption maximum (in ClCCl): 436 nm
Compound: CN(C)c1ccc(C2=CC3=C(c4ccc(C#N)cc4)[C@H]4c5ccccc5[C@]3(S2)c2ccccc24)cc1

Compound: c1ccc(-c2nc(-c3ccccc3)nc(-c3ccc(-n4c5ccc(-n6c7ccccc7c7ccccc76)cc5c5cc(-n6c7ccccc7c7ccccc76)ccc54)cc3)n2)cc1
- absorption maximum (in Cc1ccccc1): 368 nm

- absorption maximum (in ClCCl): 411 nm
Compound: C(#Cc1ncnc2ccccc12)c1ccc(N(c2ccccc2)c2ccccc2)cc1

- absorption maximum (in C1COCCO1): 415 nm
Compound: CCN(CC)c1ccc(Nc2cc3oc(-c4ccc(C#N)cc4)nc3c3ccccc23)c(C)c1

- absorption maximum (in ClCCl): 435 nm
Compound: CN(c1ccccc1)c1ccc(N(c2ccccc2)c2ccc3ccc4c(N(c5ccccc5)c5ccc(N(C)c6ccccc6)cc5)ccc5ccc2c3c54)cc1

Compound: CCCN1/C(=C\c2c(-c3ccc(N(C)C)cc3)c(=O)c2=O)C=Cc2ccccc21
- absorption maximum (in C1CCCCC1): 358 nm
- absorption maximum (in Cc1ccccc1): 362 nm
- absorption maximum (in ClCCl): 509 nm

- absorption maximum (in C1CCCCC1): 589 nm
Compound: CCc1c(C)c2n(c1C)[B-](F)(F)[N+]1=C(C=C3c4ccccc4-c4ccccc43)C=CC1=C2C

- absorption maximum (in CCO): 381 nm
Compound: Cc1c(COC(=O)c2ccccc2Cl)n2c(OCC(=O)c3ccccc3Cl)c(C)c(=O)n2c1=O

- absorption maximum (in CS(C)=O): 398 nm
Compound: N#Cc1c(/C=C/c2ccc(N(c3ccccc3)c3ccccc3)cc2)cc(-c2ccccc2)cc1N1CCCCC1

- absorption maximum (in C1CCCCC1): 345 nm
- absorption maximum (in CO): 345 nm
Compound: Cc1ccc(/C=C/c2nc3ccccc3s2)cc1

- absorption maximum (in C1CCOC1): 362 nm
Compound: c1ccc(-c2nc3c4ccccc4c4ccccc4c3n2-c2ccccc2)cc1

- absorption maximum (in ClCCl): 462 nm
Compound: CC(C)(C)c1ccc2c(c1)c1cc(C(C)(C)C)ccc1n2-c1ccc(N(c2ccc(-c3ccc(-c4ccc(N(c5ccc(-n6c7ccc(C(C)(C)C)cc7c7cc(C(C)(C)C)ccc76)cc5)c5ccc(-n6c7ccc(C(C)(C)C)cc7c7cc(C(C)(C)C)ccc76)cc5)cc4)c4nsnc34)cc2)c2ccc(-n3c4ccc(C(C)(C)C)cc4c4cc(C(C)(C)C)ccc43)cc2)cc1

- absorption maximum (in ClCCl): 380 nm
Compound: c1ccc(N(c2ccccc2)c2ccc(-c3ncnc4ccccc34)cc2)cc1

Compound: CCCCCCCCCCn1cc(C2=C(c3cn(CCCCCCCCCC)c4ccccc34)C(=O)N(C)C2=O)c2ccccc21
- absorption maximum (in C1CCCCC1): 462 nm
- absorption maximum (in C1CCOC1): 471 nm
- absorption maximum (in CC#N): 470 nm
- absorption maximum (in CC(C)OC(C)C): 470 nm
- absorption maximum (in CCCCOCCCC): 469 nm
- absorption maximum (in CCO): 480 nm
- absorption maximum (in CCOC(C)=O): 472 nm
- absorption maximum (in CN(C)C=O): 474 nm
- absorption maximum (in Cc1ccccc1): 472 nm
- absorption maximum (in ClCCl): 477 nm

- absorption maximum (in C1CCCCC1): 630 nm
- absorption maximum (in C1CCOC1): 632 nm
- absorption maximum (in C1COCCO1): 633 nm
- absorption maximum (in CO): 626 nm
- absorption maximum (in ClC(Cl)Cl): 635 nm
Compound: Cc1ccc(C2=C3C=CC(/C=C/c4ccccc4)=[N+]3[B-](F)(F)n3c(/C=C/c4ccccc4)ccc32)cc1

- absorption maximum (in ClCCl): 300 nm
Compound: O=P(c1ccccc1)(c1ccccc1)c1cccc(-n2c(-c3ccccc3P(=O)(c3ccccc3)c3ccccc3)nc3ccccc32)c1

- absorption maximum (in ClC(Cl)Cl): 342 nm
Compound: CC(C)(C)c1ccc2oc3nc4oc5ccc(N(c6ccccc6)c6ccccc6)cc5c4cc3c2c1

- absorption maximum (in C1CCCCC1): 334 nm
- absorption maximum (in C1CCOC1): 334 nm
- absorption maximum (in CC#N): 332 nm
- absorption maximum (in CCOC(C)=O): 334 nm
- absorption maximum (in ClCCCl): 336 nm
- absorption maximum (in c1ccccc1): 334 nm
Compound: CCCCCCCCCCCCCCCCOC(=O)c1ccc(N(c2ccccc2)c2ccccc2)cc1

- absorption maximum (in CCO): 600 nm
- absorption maximum (in O): 580 nm
Compound: CC[N+](CC)=c1ccc2nc3c(cc(NCCC(=O)NC(C)C(=O)OC)c4ccccc43)oc-2c1 (centres undefined)

- absorption maximum (in ClC(Cl)Cl): 390.62 nm
Compound: CCCCCCn1c2cc(/C=C/c3ccccc3)ccc2c2ccc(/C=C/c3ccccc3)cc21

- absorption maximum (in ClCCl): 343 nm
Compound: CCOc1cccc2c1O[B-](F)(F)[n+]1c3c(c4c(c1-2)-c1ccccc1CC4)-c1ccccc1CC3

Compound: c1ccc(-c2nc(-c3ccc(-c4ccc(N(c5ccccc5)c5ccccc5)cc4)cn3)oc2-c2ccccc2)cc1
- absorption maximum (in C1CCOC1): 351 nm
- absorption maximum (in C1COCCO1): 354 nm
- absorption maximum (in CC#N): 353 nm
- absorption maximum (in CC(C)=O): 352 nm
- absorption maximum (in CC(C)OC(C)C): 351 nm
- absorption maximum (in CCCCCC): 353 nm
- absorption maximum (in CCCCOCCCC): 353 nm
- absorption maximum (in CCN(CC)CC): 348 nm
- absorption maximum (in CCOC(C)=O): 351 nm
- absorption maximum (in CCOCC): 348 nm
- absorption maximum (in Cc1ccccc1): 358 nm
- absorption maximum (in c1ccccc1): 359 nm

- absorption maximum (in C1CCCCC1): 386 nm
- absorption maximum (in C1CCOC1): 386 nm
- absorption maximum (in C1COCCO1): 387 nm
- absorption maximum (in CC#N): 386 nm
- absorption maximum (in CCO): 385 nm
- absorption maximum (in CN(C)C=O): 388 nm
- absorption maximum (in CO): 384 nm
- absorption maximum (in COCCOC): 386 nm
- absorption maximum (in CS(C)=O): 390 nm
- absorption maximum (in O): 385 nm
- absorption maximum (in OCC(O)CO): 393 nm
- absorption maximum (in OCCO): 388 nm
Compound: CN(C)c1c2ccccc2cc2ccccc12

- absorption maximum (in ClCCl): 570 nm
Compound: CCCCCCOc1cc(N(CC)CC)ccc1/C=C(\C#N)c1ccc(/C=C/C(=C(C#N)C#N)c2ccc3c(c2)c2ccccc2n3CC)s1

- absorption maximum (in ClCCl): 524 nm
Compound: Clc1nnc(Oc2ccc(N(c3ccc(Br)cc3)c3ccc(Br)cc3)cc2)nn1

Compound: c1ccc2c(c1)c1ccccc1n2-c1ccc(-c2cc3ccc(-c4ccc5cc(-c6ccc(-n7c8ccccc8c8ccccc87)cc6)oc5c4)cc3o2)cc1
- absorption maximum (in Cc1ccccc1): 365 nm
- absorption maximum (in c1ccc2c(c1)c1ccccc1n2-c1ccc(-c2ccc(-n3c4ccccc4c4ccccc43)cc2)cc1): 376 nm

- absorption maximum (in ClC(Cl)Cl): 310 nm
Compound: C[Si](C)(C)c1sc([Si](C)(C)C)c2c1sc1ccsc12

- absorption maximum (in ClC(Cl)Cl): 613 nm
Compound: Cc1cc2c(o1)=CC1=C(C(F)(F)F)c3cc4oc(C)cc4n3[B-](F)(F)[N+]=21

- absorption maximum (in CC#N): 376 nm
Compound: COc1ccc(-c2csc(/C(C#N)=C/c3ccc(Cl)cc3)n2)cc1

- absorption maximum (in ClC(Cl)Cl): 434 nm
Compound: CCN(CC)c1ccc2cc(-c3cn4cc(OC)ccc4n3)c(=O)oc2c1

Compound: CC1=NN(c2ccccc2)C(=O)/C1=C/c1cn(-c2ccccc2)nc1-c1ccccc1
- absorption maximum (in C1CCOC1): 365 nm
- absorption maximum (in C1COCCO1): 366 nm
- absorption maximum (in CCO): 367 nm
- absorption maximum (in CCOC(C)=O): 364 nm
- absorption maximum (in CN(C)C=O): 367 nm
- absorption maximum (in CO): 364 nm
- absorption maximum (in CS(C)=O): 370 nm
- absorption maximum (in Cc1ccccc1): 369 nm
- absorption maximum (in ClC(Cl)Cl): 368 nm
- absorption maximum (in ClCCl): 368 nm

- absorption maximum (in ClC(Cl)Cl): 410 nm
Compound: CCc1cc(CC)cc(-n2c3ccccc3c3cc4c(cc32)c2ccccc2n4-c2cc(CC)cc(CC)c2)c1

Compound: COc1ccc(/C=C/C2=CC(/C=C/c3ccc(OC)cc3)=[O+][B-](OC(C)=O)(OC(C)=O)O2)cc1
- absorption maximum (in C1CCOC1): 456 nm
- absorption maximum (in CC#N): 462 nm
- absorption maximum (in CC(C)=O): 458 nm
- absorption maximum (in CS(C)=O): 468 nm
- absorption maximum (in Cc1ccccc1): 456 nm
- absorption maximum (in ClC(Cl)Cl): 464 nm
- absorption maximum (in ClCCl): 464 nm

- absorption maximum (in ClC(Cl)Cl): 423 nm
Compound: CCCN1c2ccccc2Sc2cc(/C=C\c3cc(=O)oc4ccc(C)cc34)ccc21
